These results are taken from publication PMC7179450, “Primary Human Hepatocytes, But not HepG2 or Balb/c 3T3 Cells, Efficiently Metabolize Salinomycin and Are Resistant to Its Cytotoxicity” (Molecules, 2020).

Where two headings read alike, the source gives them in different places.

In series [1] the test system is HepG2 cells. Put plainly: MTT assay, cytotoxicity in HepG2. It is filed as cell-based. To be noted: Homo sapiens, mean ± SEM, n = 3, read-out: EC50 (effective concentration). The method, then:
(§1) The HepG2 cell line was purchased from the American Type Culture Collection (ATCC® HB-8065™). The cells were cultured in Minimum Essential Medium Eagle (MEME) (Sigma–Aldrich Co. (St. Louis, MO, USA)). Normal murine embryonic fibroblasts, Balb/c 3T3 clone A31 cell line (gift from Department of Swine Diseases of the National Veterinary Research Institute in Pulawy) was cultured in Dulbecco’s Modified Eagle’s Medium (DMEM) (Invitrogen Corporations (Paisley, UK)). The media were supplemented with 10% BCS (Balb/c 3T3), 10% FBS (HepG2), 1% L-glutamine, and 1% antibiotic solution. The cells were maintained in 75 cm^2 cell culture flasks in humidified incubator at 37 °C, in an atmosphere of 5% CO2. […] The initial cell viability was determined with the trypan blue exclusion test. […]
(§2) The concentration ranges of the drugs were chosen according to their solubility and their plasma level. […] The cytotoxicity was assessed after 24 and 48 h of exposure of cell lines or after 12 and 24 h exposure of PHH. […]
(§3) The metabolic activity of living cells was assessed by measuring the activity of dehydrogenases. […] The plate was shaken for 15 min at room temperature and transferred to a microplate reader to measure the absorbance at 570 nm, using a blank as a reference. Cytotoxicity was expressed as a percentage of the negative control (0.1% or 0.2% DMSO).

Series [2] relates to Balb/c 3T3 fibroblasts. Put plainly: Biotransformation of SAL and metabolites in Balb/c 3T3 fibroblasts (LC-MS/MS). The conditions noted are these: 24 h (Figure 2B). In kind it is in vitro ADME, mouse. The method, then: as §1
(§4) The medium samples from microplate wells were collected for identifying SAL metabolites and normalized to a cell number. An aliquot of 200 µL of each sample was measured to Eppendorf tube. […] The dry residue was reconstituted in 50% acetonitrile and analyzed with LC-MS/MS. […]
(§5) SAL (m/z 773.4 to m/z 431.3) was monitored in multiple reaction monitoring (MRM) modes. […]
(§6) The signals for further analysis were selected with the LightSight 2.3 software. […] These MRM transitions (with 20 chromatographic peaks) were then quantified with Multiquant 2.1. software. Quantitative analysis was performed for SAL. […]

The subject of series [3] is primary human hepatocytes (PHH). The experiment in a line: Biotransformation of SAL and metabolites in medium of PHH (LC-MS/MS). In kind it is in vitro ADME. How it is done:
Cryopreserved PHH were purchased from the Primacyt GmbH (Schwerin, Germany). Two different lots were chosen based on CYP activity. The donor was a person. The post-thaw viability was 94.6% for lot HH160531 (used in two repetitions) and 85.0% for lot HH130805. The initial cell viability was determined with the trypan blue exclusion test. The cells were thawed and purified using the Plating and Thawing Kit (Primacyt GmbH). Purified hepatocytes were resuspended in Hepatocyte Plating Medium (Primacyt GmbH) and seeded on collagen-coated 96-well plates at a density of 9 × 10^5 cell/mL and incubated at 37 °C with 5% CO2. After 6 h of incubation, the medium was removed and the cells were washed with PBS. […]
as §4, §5, §6

Series [4] relates to Balb/c 3T3 cells. The experiment in a line: MTT assay, cytotoxicity in Balb/c 3T3. In kind it is cell-based. To be noted: Mus musculus, BALB/c3T3, Balb/c 3T3, MTT, mean ± SEM, n = 3, read-out: EC50 (effective concentration). The method, then:
as §1, §2, §3

As to `CC[C@@H](C(=O)[C@@H](C)[C@@H](O)[C@H](C)[C@@H]1O[C@@H]([C@@H](CC)C(=O)O)CC[C@@H]1C)[C@H]1O[C@]2(C=C[C@@H](O)[C@]3(CC[C@@](C)([C@H]4CC[C@](O)(CC)[C@H](C)O4)O3)O2)[C@H](C)C[C@@H]1C` [SAL, salinomycin], the EC50 was determined as 15.4 ± 1.7 µg/mL in series [1] (24 h exposure), 12.9 ± 1.4 µg/mL in series [1] (48 h exposure), 10.4 ± 1.4 µg/mL in series [4] (24 h exposure) and 4.3 ± 0.9 µg/mL in series [4] (48 h exposure). Also, the “biotransformation of SAL” value in series [2] was “no biotransformation”. Also, in series [3] (PHH), the “SAL metabolised, share of the dose” value is listed as “up to 90%”. For the same molecule, in series [3] (PHH co-exposed with tiamulin), the “maximum percentage of bio-transformed SAL” value is listed as 25%.
